System: Saccharum officinarum plants
Assay: Field trial: desiccation of sugarcane leaves after application of diluted glufosinate-ammonium compositions
Type: in vivo
Conditions: growth stage BBCH 49 (approx. 300 cm), evaluation 2 weeks after application
Procedure: The compositions described in the table above were diluted with water and applied to a field of Saccharum officinarum plants at growth stage BBCH 49 (approximately 300 cm growth height; corresponding to about 2 weeks before harvest), such that the amount of glufosinate ammonium was 800 g/ha or 1000 g/ha, respectively.

What does the source list for `CP(=O)(O)CCC(N)C(=O)O` (centres unmarked) [glufosinate ammonium, 2-amino-4-[hydroxy(methyl)phosphinoyl]butanoic acid]?
desiccation of sugarcane leaves (800 g/ha glufosinate ammonium): 54%; desiccation of sugarcane leaves (1000 g/ha glufosinate ammonium): 60%
